In US20220127297A1, “Novel Antibacterial 3"-Derivatives Of 4,6-Disubstituted 2,5-Dideoxystreptamine Aminoglycoside Antibiotics” (AGILeBiotics B.V., priority 2018, published 2022):
Values after ≈ are worked out from the molar mass of the structure shown.

Columns and labels:
E. coli ATCC25922 strain = assay: MIC 50, broth micro-dilution, wild-type Escherichia coli; assay type: cell-based; conditions: MH2, 18 h
From the text: (§1) 3.1 Against E. coli Strains
(§2) Tested reference compounds. Amikacin sulfate (Cat. No. 01693, Chem-Impex), Gentamicin sulfate (Cat. No. G4918, Sigma Aldrich).
(§3) Microbial strains. E. coli ATCC 25922, E. coli ATCC 25922/pET-9b(+), E. coli ATCC 25922/pAT21-1, E. coli ATCC 25922/pBluescript::AAC(6′)-Ie/APH(2″)-Ia, E. coli ATCC 25922/pBlue_lpp_aacC3_rrnC, E. coli ATCC 25922/pSET152.
(§4) Culture media and equipment. BBL™ Mueller Hinton Broth 2 (Lot. BCBW1143, Cat. No. 70192, Sigma); Kanamycin A (Cat. No. A1493, AppliChem); 96-well deep well plate, 1 mL (Cat. No. 0030506.200, Eppendorf); Plate lids (Cat. No. 0030131.525, Eppendorf); 96-well plate, F-bottom (Cat. No. 781602, Brand; Incubator, Infors Multitron Pro); Laminar flow (Heraeus KS12); UV/VIS meter (Eppendorf BioPhotometer Plus); Platereader (Tecan Sunrise).
(§5) Compound preparation. Compounds were prepared in MH2 media at a concentration of 5 mM and stored at 4° C. For testing, solutions of 128 μM were prepared in MH2. Out of these working solutions, 400 μL was transferred to wells in the first column of 96-well deep well plates. Each compound was transferred in triplicate. Plates were previously filled with 200 μL of MH2 media in all wells except for the wells in the first column. After compound and antibiotic addition, the compounds were serial two-fold diluted by transferring 200 μL from the first to the second column, then from the second to the third column and so on. Finally, 200 μL was removed from the last column.
(§6) Inoculum preparation. Microorganisms used were all revived from 20% glycerol (40% v/v glycerol in water was diluted with MH2) storage at −80° C. by inoculating them in 5 mL MH2. inoculums of E. coli containing a plasmid were selected for by adding 50 μg/mL KanaA. The Inoculums were grown to an optical density (measured by UV/Vis spectroscopy) of 0.6-0.8 at 600 nm. Out of these suspensions, actual inoculums were prepared by diluting them to an optical density (OD) of 0.1 in MH2 media. From these inoculums, 200 μL was transferred to each well, resulting in a final compound concentration range of 64 μM-31.3 nM. All plates were incubated at 900 rpm and 70% rH for 18 h at 37° C.
MIC determination. After 18 h of growth, 200 μL was transferred to a 96-well F-bottom plate. The optical density was determined by a plate reader at 600 nm, with 10 s shaking before reading. Triplicate measurements were averaged, and a growth curve was plotted in Microsoft Excel. The first column in which the growth reached half the value of maximum growth was determined as the MIC50 value for that particular compound.
MIC50. The MIC50 of a compound was assigned at which the bacterial growth reached half the value of maximum growth.

E. coli (APH(3′)Ia) = assay: MIC 50, broth micro-dilution, E. coli expressing APH(3′)Ia; assay type: cell-based, Escherichia coli
Protocol: (§7) Plasmid transformation. Approximately 500 ng of the pET-9b(+) (Cat. No. 69432-3, Merck), pAT21-1 (provided by Prof. Dr. Patrice Courvalin, M.D., Pasteur Institute, France; prepared according to Trieu-Cuot et. al, Mol. Gen. Genet. 198(2), 348 (1985)), pBluescript::AAC(6′)-Ie/APH(2″)-Ia (provided by Prof. Dr. Sergei Vakulenko, M.D., University of Notre Dame, Ind., USA; prepared according to S. B. Vakulenko et. al., J. Biol. Chem. 287 (52), 43262 (2012)), pBlue_lpp_aacC3_rrnC and pSET152 (Cat. No. PVT3395, Life Science Market; prepared according to Bierman et al., Gene 116 (1), 43 (1992)) plasmids, encoding APH(3′)-Ia (SEQ ID NO:2), APH(3′)-IIIa (SEQ ID NO:3), AAC(6′)Ie-APH(2″)-Ia (SEQ ID NO:4), AAC(3)-III (SEQ ID NO:1), and AAC(3)-IV (SEQ ID NO:5) respectively, were individually incubated in a vial of competent cells for 15 min on ice. The cells were subsequently heated to 42° C. for 90 s, and cooled on ice for 1 min. After addition of 900 μL LB, the cells were incubated for 1 h at 37° C. and 200 rpm. Cells were plated on LB-agar supplemented with 50 μg/mL KanaA and incubated for 18 h at 37° C. The next day, a single colony was inoculated in 5 mL LB supplemented with 50 μg/mL and grown for 18 h at 37° C. and 200 rpm. A 200 μL sample of each culture was diluted with 200 μL of 40% v/v glycerol in water, and stored at −80° C. The plasmid was purified from the remaining culture using the Plasmid Miniprep kit. Plasmid DNA was investigated by Eurofins Genomics (Germany) to confirm the identity of the aminoglycoside resistance genes.
as §1, §2, §3, §4, §5, §6
(§8) MIC determination. After 18 h of growth, 200 μL was transferred to a 96-well F-bottom plate. The optical density was determined by a plate reader at 600 nm, with 10 s shaking before reading. Triplicate measurements were averaged, and a growth curve was plotted in Microsoft Excel. […]

[1] = tested on: E. coli (AAC(6′)Ie-APH(2″)Ia); assay: MIC 50, broth micro-dilution, E. coli expressing AAC(6′)Ie-APH(2″)Ia; assay type: cell-based, Escherichia coli
Protocol: as §7, §1, §2, §3, §4, §5, §6, §8

[2] = ATCC25922 harboring plasmid encoding APH(3′)Ia
[3] = ATCC25922 harboring plasmid encoding AAC(6′)Ie-APH(2″)Ia
[4] = Escherichia coli, ATCC25922, 18 h
[5] = Escherichia coli, ATCC25922, ATCC25922 harboring plasmid encoding APH(3′)Ia
[6] = Escherichia coli, ATCC25922, ATCC25922 harboring plasmid encoding AAC(6′)Ie-APH(2″)Ia

## NCCC(O)C(=O)NC1CC(N)C(OC2OC(CN)C(O)C(O)C2N)C(O)C1OC1OC(CO)C(O)C(N)C1O (stereo not drawn) [ABX4001, KanaB-AHB]
E. coli ATCC25922 strain
  MIC50: 2 µM (≈ 1.17 µg/mL)
E. coli (APH(3′)Ia); [2]
  MIC50: 8 µM (≈ 4.68 µg/mL)
[1]; [3]
  MIC50: 4 to 8 µM

## N=C(NC[C@@H]1CCNC1)NC1[C@@H](O)C(OC2[C@@H](F)[C@H](O[C@H]3OC(CN)[C@@H](O)CC3N)C(N)C[C@H]2NC(=O)[C@@H](O)CCN)O[C@H](CO)[C@H]1O (stereo partly drawn) [ABX5039, Tobra-AHB-F-Gua (R) pyrrolidine-3-ylmethyl]
E. coli ATCC25922 strain; [4]
  MIC50: 0.25 µM (≈ 0.174 µg/mL)
E. coli (APH(3′)Ia); [5]
  MIC50: 0.25 µM (≈ 0.174 µg/mL)
[1]; [6]
  MIC50: 0.25 µM (≈ 0.174 µg/mL)

## N=C(NC[C@H]1CNCCO1)NC1[C@@H](O)C(OC2[C@@H](F)[C@H](O[C@H]3OC(CN)[C@@H](O)CC3N)C(N)C[C@H]2NC(=O)[C@@H](O)CCN)O[C@H](CO)[C@H]1O (stereo partly drawn) [ABX5043, Tobra-AHB-F-Gua (R) morpholin-2-yl methyl]
E. coli ATCC25922 strain; [4]
  MIC50: 0.25 µM (≈ 0.178 µg/mL)
E. coli (APH(3′)Ia); [5]
  MIC50: 0.5 to 1 µM (≈ 0.356 to 0.712 µg/mL)
[1]; [6]
  MIC50: 0.25 µM (≈ 0.178 µg/mL)

## N=C(NCCN)NC1C(O)[C@@H](CO)OC(OC2C(F)[C@H](O[C@H]3OC(CN)[C@@H](O)CC3N)C(N)C[C@H]2NC(=O)[C@@H](O)CCN)[C@@H]1O (stereo partly drawn) [ABX5020, Tobra-AHB-F-Gua-2-amino-ethyl]
E. coli ATCC25922 strain; [4]
  MIC50: 0.5 µM (≈ 0.328 µg/mL)
E. coli (APH(3′)Ia); [5]
  MIC50: 1 to 2 µM (≈ 0.656 to 1.31 µg/mL)
[1]; [6]
  MIC50: 0.5 µM (≈ 0.328 µg/mL)

## N=C(N)NC1[C@@H](O)C(OC2[C@@H](F)[C@H](O[C@H]3OC(CN)[C@@H](O)[C@H](O)C3O)C(N)C[C@H]2NC(=O)[C@@H](O)CCN)O[C@H](CO)[C@H]1O (stereo partly drawn) [ABX3003, 3′epi-KanaA-AHB-F-Gua]
E. coli ATCC25922 strain; [4]
  MIC50: 2 µM (≈ 1.26 µg/mL)
E. coli (APH(3′)Ia); [5]
  MIC50: 8 µM (≈ 5.04 µg/mL)
[1]; [6]
  MIC50: 2 µM (≈ 1.26 µg/mL)

## N=C(NCc1cnc[nH]1)NC1[C@@H](O)C(OC2[C@@H](F)[C@H](O[C@H]3OC(CN)[C@@H](O)CC3N)C(N)C[C@H]2NC(=O)[C@@H](O)CCN)O[C@H](CO)[C@H]1O (stereo partly drawn) [ABX5050, Tobra-AHB-F-Gua imidazol-5-yl methyl]
E. coli ATCC25922 strain; [4]
  MIC50: 1 µM (≈ 0.693 µg/mL)
E. coli (APH(3′)Ia); [5]
  MIC50: 2 µM (≈ 1.39 µg/mL)
[1]; [6]
  MIC50: 1 µM (≈ 0.693 µg/mL)

## NCC[C@H](O)C(=O)N[C@@H]1CC(N)[C@@H](O[C@H]2OC(CN)[C@@H](O)CC2N)[C@H](F)C1OC1O[C@H](CO)[C@@H](O)C(N)[C@H]1O (stereo partly drawn) [ABX5024, Tobra-AHB-F]
E. coli ATCC25922 strain
  MIC50: 1 µM (≈ 0.571 µg/mL)
E. coli (APH(3′)Ia); [2]
  MIC50: 2 to 4 µM
[1]; [3]
  MIC50: 1 µM (≈ 0.571 µg/mL)

## N=C(N)NC1[C@@H](O)C(OC2[C@@H](O)[C@H](O[C@H]3OC(CN)[C@@H](O)[C@H](O)C3N)C(N)C[C@H]2NC(=O)[C@@H](O)CCN)O[C@H](CO)[C@H]1O (stereo partly drawn) [ABX4009, KanaB-AHB-Gua]
E. coli ATCC25922 strain
  MIC50: 2 µM (≈ 1.25 µg/mL)
E. coli (APH(3′)Ia); [2]
  MIC50: 8 µM (≈ 5.01 µg/mL)
[1]; [3]
  MIC50: 2 to 4 µM

## NCCC(O)C(=O)NC1CC(N)C(OC2OC(CN)C(O)C(O)C2O)C(F)C1OC1OC(CO)C(O)C(N)C1O (stereo not drawn) [ABX3005, 3′Epi-KanaA-AHB-F]
E. coli ATCC25922 strain
  MIC50: 4 µM (≈ 2.35 µg/mL)
E. coli (APH(3′)Ia); [2]
  MIC50: 8 to 16 µM
[1]; [3]
  MIC50: 4 µM (≈ 2.35 µg/mL)

## N=C(N)NC1[C@@H](O)C(OC2[C@@H](F)[C@H](O[C@H]3OC(CN)[C@@H](O)[C@H](O)C3N)C(N)C[C@H]2NC(=O)[C@@H](O)CCN)O[C@H](CO)[C@H]1O (stereo partly drawn) [ABX4004, 3′epi-KanaB-AHB-F-Gua]
E. coli ATCC25922 strain
  MIC50: 1 to 2 µM
E. coli (APH(3′)Ia); [2]
  MIC50: 4 µM (≈ 2.51 µg/mL)
[1]; [3]
  MIC50: 2 µM (≈ 1.26 µg/mL)
